What all share (test): DSF 100 kinase selectivity screen;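 further: compound tested at 20 µM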
Holding throughout (format): binding

Test [1] has as its target T1, ~100 representative kinases (Homo sapiens, UniProt Q13153).
T1 construct: Recombinant protein kinase domains with a concentration of 2 μM
To be noted: protein PAK1; average of three replicates. An outline of the steps:
(§1)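 Each kinase domain, at 2 μM, is mixed with 20 μM test compound and SYPRO Orange in Hepes (20 mM, pH 7.5) with 500 mM NaCl. Temperature is then raised at 3°C/min and fluorescence-monitored unfolding yields the melting temperature change, ΔTm in degrees Celsius.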

Test [2] concerns the target T2, ~100 representative kinases (Homo sapiens, UniProt Q96NX5).
T2 construct: Recombinant protein kinase domains with a concentration of 2 μM
To be noted: Protein CAMK1G; average of three replicates. An outline of the steps:
as §1

Test [3] deals with T3, ~100 representative kinases (Homo sapiens, UniProt O96013).
T3 construct: Recombinant protein kinase domains with a concentration of 2 μM
The settings on record: protein PAK4; average of three replicates. The gist of the method:
as §1

In test [4] the target is T4, ~100 representative kinases (Homo sapiens, UniProt P29317).
T4 construct: Recombinant protein kinase domains with a concentration of 2 μM
To be noted: Protein EPHA2; average of three replicates. The gist of the method:
as §1

Test [5] deals with T5, ~100 representative kinases (Homo sapiens, UniProt O14976).
T5 construct: Recombinant protein kinase domains with a concentration of 2 μM
T5 sequence (O14976 1-1311): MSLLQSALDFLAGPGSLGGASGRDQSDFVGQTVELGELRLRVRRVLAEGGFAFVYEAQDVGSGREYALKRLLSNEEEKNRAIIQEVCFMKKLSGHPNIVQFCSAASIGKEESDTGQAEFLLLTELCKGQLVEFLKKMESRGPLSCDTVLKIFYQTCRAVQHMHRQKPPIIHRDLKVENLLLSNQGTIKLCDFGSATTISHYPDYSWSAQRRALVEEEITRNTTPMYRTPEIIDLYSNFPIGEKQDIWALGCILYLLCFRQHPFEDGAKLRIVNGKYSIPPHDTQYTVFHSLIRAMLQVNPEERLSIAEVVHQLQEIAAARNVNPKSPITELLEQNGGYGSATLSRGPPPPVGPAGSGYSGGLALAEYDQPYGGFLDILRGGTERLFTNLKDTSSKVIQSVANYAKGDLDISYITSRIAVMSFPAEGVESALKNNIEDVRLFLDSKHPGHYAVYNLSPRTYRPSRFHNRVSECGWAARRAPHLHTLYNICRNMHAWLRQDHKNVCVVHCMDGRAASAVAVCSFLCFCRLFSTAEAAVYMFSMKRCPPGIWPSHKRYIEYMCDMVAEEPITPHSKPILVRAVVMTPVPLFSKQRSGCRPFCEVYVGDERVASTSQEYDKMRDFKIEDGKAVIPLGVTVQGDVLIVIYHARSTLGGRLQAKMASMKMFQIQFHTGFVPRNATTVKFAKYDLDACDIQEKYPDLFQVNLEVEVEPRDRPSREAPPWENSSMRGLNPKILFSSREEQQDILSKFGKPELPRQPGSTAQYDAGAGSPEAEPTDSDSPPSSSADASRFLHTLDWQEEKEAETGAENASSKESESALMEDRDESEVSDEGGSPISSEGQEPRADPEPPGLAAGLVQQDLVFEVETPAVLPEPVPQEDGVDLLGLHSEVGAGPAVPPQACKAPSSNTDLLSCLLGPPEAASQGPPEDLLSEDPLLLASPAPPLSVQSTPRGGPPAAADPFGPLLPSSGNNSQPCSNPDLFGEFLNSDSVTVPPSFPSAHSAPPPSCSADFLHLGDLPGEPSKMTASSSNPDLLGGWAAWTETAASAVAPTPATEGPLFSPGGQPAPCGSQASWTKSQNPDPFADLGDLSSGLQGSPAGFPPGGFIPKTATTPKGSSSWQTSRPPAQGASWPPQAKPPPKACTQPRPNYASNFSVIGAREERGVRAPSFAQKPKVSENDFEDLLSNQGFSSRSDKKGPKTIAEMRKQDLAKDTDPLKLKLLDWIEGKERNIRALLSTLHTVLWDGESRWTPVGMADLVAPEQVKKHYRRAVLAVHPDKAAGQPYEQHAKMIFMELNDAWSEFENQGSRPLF
The settings on record: protein GAK; average of three replicates. The gist of the method:
as §1

For test [6], the target named is T6, ~100 representative kinases (Homo sapiens, UniProt O00444).
T6 construct: Recombinant protein kinase domains with a concentration of 2 μM
T6 sequence (O00444 1-970): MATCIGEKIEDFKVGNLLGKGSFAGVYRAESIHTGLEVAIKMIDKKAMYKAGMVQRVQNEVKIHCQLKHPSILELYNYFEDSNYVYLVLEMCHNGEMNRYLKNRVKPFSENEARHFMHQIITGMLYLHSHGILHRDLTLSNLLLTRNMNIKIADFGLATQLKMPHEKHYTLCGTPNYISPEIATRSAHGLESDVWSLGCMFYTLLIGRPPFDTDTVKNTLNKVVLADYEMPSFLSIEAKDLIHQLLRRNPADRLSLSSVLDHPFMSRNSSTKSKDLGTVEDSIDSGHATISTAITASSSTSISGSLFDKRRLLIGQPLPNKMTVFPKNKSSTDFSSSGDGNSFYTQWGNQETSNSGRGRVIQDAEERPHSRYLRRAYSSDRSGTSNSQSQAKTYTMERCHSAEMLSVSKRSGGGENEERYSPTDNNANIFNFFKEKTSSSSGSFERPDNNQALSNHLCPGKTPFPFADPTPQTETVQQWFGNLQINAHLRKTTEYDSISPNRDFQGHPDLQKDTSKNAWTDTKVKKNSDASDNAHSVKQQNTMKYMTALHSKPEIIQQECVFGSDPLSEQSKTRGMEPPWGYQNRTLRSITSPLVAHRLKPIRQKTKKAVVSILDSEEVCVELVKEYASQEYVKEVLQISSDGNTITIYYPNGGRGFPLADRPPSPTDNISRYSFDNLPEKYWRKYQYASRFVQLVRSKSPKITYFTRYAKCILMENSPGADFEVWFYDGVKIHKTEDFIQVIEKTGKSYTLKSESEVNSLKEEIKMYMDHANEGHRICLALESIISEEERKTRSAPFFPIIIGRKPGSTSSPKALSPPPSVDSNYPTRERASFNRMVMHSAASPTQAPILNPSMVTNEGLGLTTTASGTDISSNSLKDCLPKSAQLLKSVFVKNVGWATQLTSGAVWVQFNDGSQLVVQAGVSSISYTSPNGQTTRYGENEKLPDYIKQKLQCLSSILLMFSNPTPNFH
To be noted: protein PLK4; average of three replicates. An outline of the steps: as §1

T2 sequence (Q96NX5 whole entry, the tested form may be a part): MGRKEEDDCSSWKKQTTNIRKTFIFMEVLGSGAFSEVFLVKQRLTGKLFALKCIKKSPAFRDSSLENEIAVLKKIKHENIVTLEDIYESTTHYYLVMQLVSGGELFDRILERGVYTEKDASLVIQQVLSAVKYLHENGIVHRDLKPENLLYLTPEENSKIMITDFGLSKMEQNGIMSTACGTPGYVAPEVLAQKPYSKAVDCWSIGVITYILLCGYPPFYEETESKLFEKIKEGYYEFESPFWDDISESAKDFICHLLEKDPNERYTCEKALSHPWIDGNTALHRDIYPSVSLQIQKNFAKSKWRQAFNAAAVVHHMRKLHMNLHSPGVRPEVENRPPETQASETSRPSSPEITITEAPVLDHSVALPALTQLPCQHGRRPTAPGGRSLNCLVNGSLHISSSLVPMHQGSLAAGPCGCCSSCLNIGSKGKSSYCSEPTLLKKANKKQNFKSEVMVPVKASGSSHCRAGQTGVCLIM
T3 sequence (O96013 whole entry, the tested form may be a part): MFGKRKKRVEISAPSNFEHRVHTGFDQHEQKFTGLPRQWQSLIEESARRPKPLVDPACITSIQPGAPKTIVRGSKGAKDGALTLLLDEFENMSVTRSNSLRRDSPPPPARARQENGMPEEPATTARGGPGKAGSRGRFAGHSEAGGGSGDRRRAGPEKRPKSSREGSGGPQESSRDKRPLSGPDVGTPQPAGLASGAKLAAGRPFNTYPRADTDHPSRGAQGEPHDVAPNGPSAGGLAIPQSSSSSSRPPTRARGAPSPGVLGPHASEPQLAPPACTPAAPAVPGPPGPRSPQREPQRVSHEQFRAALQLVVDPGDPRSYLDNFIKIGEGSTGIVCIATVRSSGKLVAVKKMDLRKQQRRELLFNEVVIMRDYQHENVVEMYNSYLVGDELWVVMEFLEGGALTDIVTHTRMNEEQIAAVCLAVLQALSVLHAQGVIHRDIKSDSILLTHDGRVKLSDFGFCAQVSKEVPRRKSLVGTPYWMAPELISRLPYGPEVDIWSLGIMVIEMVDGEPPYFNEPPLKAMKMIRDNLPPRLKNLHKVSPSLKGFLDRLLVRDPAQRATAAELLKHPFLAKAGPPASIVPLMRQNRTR
T4 sequence (P29317 24-976): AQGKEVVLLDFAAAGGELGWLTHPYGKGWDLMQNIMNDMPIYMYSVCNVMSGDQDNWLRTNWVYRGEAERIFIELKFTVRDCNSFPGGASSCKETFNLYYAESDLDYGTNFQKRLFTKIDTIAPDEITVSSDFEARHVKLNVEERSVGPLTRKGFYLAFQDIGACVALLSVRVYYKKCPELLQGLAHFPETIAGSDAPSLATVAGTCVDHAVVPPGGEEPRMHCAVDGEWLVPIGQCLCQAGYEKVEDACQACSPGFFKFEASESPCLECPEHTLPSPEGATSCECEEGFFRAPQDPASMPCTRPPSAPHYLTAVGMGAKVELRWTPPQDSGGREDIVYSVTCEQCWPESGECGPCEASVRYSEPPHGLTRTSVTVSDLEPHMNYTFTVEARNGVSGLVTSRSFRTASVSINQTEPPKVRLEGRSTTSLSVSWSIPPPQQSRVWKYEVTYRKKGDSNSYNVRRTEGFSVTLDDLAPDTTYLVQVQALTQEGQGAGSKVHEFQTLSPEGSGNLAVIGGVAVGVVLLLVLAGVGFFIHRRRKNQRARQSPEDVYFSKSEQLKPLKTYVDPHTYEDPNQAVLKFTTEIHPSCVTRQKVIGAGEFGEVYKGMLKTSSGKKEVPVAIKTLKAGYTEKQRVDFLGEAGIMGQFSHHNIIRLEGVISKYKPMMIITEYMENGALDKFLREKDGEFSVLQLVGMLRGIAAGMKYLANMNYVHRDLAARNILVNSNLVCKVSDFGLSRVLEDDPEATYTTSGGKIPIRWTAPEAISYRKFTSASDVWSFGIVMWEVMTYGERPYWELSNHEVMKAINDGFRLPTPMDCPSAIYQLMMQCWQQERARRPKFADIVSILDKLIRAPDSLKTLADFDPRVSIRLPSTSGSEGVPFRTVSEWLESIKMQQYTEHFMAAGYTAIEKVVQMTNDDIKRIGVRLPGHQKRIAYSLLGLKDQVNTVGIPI
T1 sequence (Q13153 whole entry, the tested form may be a part): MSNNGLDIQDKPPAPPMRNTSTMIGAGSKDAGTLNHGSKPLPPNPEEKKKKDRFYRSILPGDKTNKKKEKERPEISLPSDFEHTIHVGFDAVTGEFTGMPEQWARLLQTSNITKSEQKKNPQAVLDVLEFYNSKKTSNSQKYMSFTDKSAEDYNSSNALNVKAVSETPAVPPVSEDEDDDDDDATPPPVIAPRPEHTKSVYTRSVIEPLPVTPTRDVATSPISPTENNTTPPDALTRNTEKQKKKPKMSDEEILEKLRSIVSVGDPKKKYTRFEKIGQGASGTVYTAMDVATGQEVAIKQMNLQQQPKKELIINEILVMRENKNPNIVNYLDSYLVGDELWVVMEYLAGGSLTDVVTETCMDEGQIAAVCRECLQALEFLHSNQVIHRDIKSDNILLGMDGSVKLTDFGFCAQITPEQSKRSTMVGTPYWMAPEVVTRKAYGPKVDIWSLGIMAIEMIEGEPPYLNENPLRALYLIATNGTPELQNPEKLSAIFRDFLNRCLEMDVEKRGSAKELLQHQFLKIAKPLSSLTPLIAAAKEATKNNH

With `O=C(Nc1cccc(-c2c[nH]c3ncnc(N4CCOCC4)c23)c1)C1(C(=O)Nc2ccc(F)c(Br)c2)CC1` [Compound 19], the dTm in test [1] is listed as 5.56 K; in test [2] it was 5.35 K; in test [3] it was 1.11 K; in test [4], 4.87 K; in test [5], 1.18 K; in test [6], 0.00 K.
For the compound `Cc1cc(NC(=O)C2(C(=O)Nc3cccc(-c4c[nH]c5ncnc(N6CCOCC6)c45)c3)CC2)ccc1F` [Compound 20], the dTm in test [1] is given as 6.40 K; in test [2], 2.80 K; in test [3], -0.11 K; in test [4] it was 6.64 K; in test [5], 1.48 K; in test [6] it was 12.28 K.
For `COc1cc(NC(=O)C2(C(=O)Nc3cccc(-c4c[nH]c5ncnc(N6CCOCC6)c45)c3)CC2)ccc1F` [Compound 21], the dTm in test [1] was 4.31 K; in test [2] it was 1.23 K; in test [3], -0.79 K; in test [4], 2.31 K; in test [5] it was 0.54 K; in test [6], 10.46 K.
With `CC(C)(C)c1cccc(NC(=O)C2(C(=O)Nc3cccc(-c4c[nH]c5ncnc(N6CCOCC6)c45)c3)CC2)c1` [Compound 22], the dTm in test [1] is on record as 3.87 K; in test [2], 4.22 K; in test [3] it was 0.76 K; in test [4], 3.30 K; in test [5] it was -2.23 K; in test [6], 9.02 K.
Consider `O=C(Nc1cccc(-c2c[nH]c3ncnc(N4CCOCC4)c23)c1)C1(C(=O)Nc2ccc(F)cc2F)CC1` [Compound 23], for which the dTm in test [1] is listed as 1.05 K; in test [2], 1.64 K; in test [3], -0.00913 K; in test [4], 4.60 K; in test [5] it was 0.67 K; in test [6], 7.20 K.
As for `Cc1cc(F)ccc1NC(=O)C1(C(=O)Nc2cccc(-c3c[nH]c4ncnc(N5CCOCC5)c34)c2)CC1` [Compound 24], the dTm in test [1] is 2.36 K; in test [2], 0.49 K; in test [3] it was -0.47 K; in test [4], 3.46 K; in test [5] it was 0.84 K; in test [6], 7.17 K.
Regarding `O=C(Nc1cccc(-c2c[nH]c3ncnc(N4CCOCC4)c23)c1)C1(C(=O)Nc2cc(Br)c(F)cc2F)CC1` [Compound 25], the dTm in test [1] was 0.67 K; in test [2] it was 4.91 K; in test [3] it was 0.88 K; in test [4] it was 1.14 K; in test [5], 0.71 K; in test [6], 0.00 K.
Regarding `O=C(Nc1cccc(-c2c[nH]c3ncnc(N4CCOCC4)c23)c1)C1(C(=O)Nc2ccc(F)c(Br)c2F)CC1` [Compound 26], the dTm is given as 2.69 K in test [1]; 4.69 K in test [2]; 0.78 K in test [3]; 2.30 K in test [4]; 0.91 K in test [5]; 5.97 K in test [6].
For the compound `O=C(Nc1cc(F)cc(Br)c1)C1(C(=O)Nc2cccc(-c3c[nH]c4ncnc(N5CCOCC5)c34)c2)CC1` [Compound 27], the dTm in test [1] is recorded as 3.33 K; in test [2], 3.15 K; in test [3] it was 0.52 K; in test [4] it was 0.41 K; in test [5], -0.90 K; in test [6], 0.00 K.
`CC(C)(C)c1cc(NC(=O)Nc2cccc(-c3c[nH]c4ncnc(N5CCOCC5)c34)c2)n(-c2ccc3ncccc3c2)n1` [Compound 28]: the dTm in test [1] turned out to be 5.08 K; in test [2] it was 6.01 K; in test [3], 0.80 K; in test [4] it was 14.41 K; in test [5] it was 7.34 K; in test [6], 3.84 K.
Take `Cc1ccc(-n2nc(C(C)(C)C)cc2NC(=O)Nc2cccc(-c3c[nH]c4ncnc(N5CCOCC5)c34)c2)cc1` [Compound 29]: the dTm was determined as 3.58 K in test [1]; 3.88 K in test [2]; 1.80 K in test [3]; 10.91 K in test [4]; 0.00 K in test [5]; 4.74 K in test [6].
With `Cc1ccc(-n2nc(C(C)(C)C)cc2NC(=O)Nc2cccc(-c3c[nH]c4nc(Cl)nc(N5CCOCC5)c34)c2)cc1` [Compound 30], the dTm is 0.76 K in test [1]; -0.26 K in test [2]; 0.13 K in test [3]; 3.08 K in test [4]; -1.53 K in test [5]; 0.26 K in test [6].
`CC(=O)N1CCN(c2nc(Cl)nc3[nH]cc(-c4cccc(NC(=O)Nc5cc(C(C)(C)C)nn5-c5ccc(C)cc5)c4)c23)CC1` [Compound 31]: the dTm in test [1] is on record as 0.00835 K; in test [2] it was 0.05 K; in test [3], 0.48 K; in test [4], 4.11 K; in test [5], 3.32 K; in test [6], 0.19 K.
On to `CCSc1nc(NC)c2c(-c3cccc(NC(=O)Nc4cc(C(C)(C)C)nn4-c4ccc(C)cc4)c3)c[nH]c2n1` [Compound 32], for which the dTm in test [1] is reported as -0.13 K; in test [2] it was 0.27 K; in test [3] it was 0.61 K; in test [4], 0.36 K; in test [5], -1.07 K; in test [6], 0.48 K.
For the compound `COc1cc(C(=O)N2CCOCC2)c(F)cc1Nc1nc(N(C)C)c2c(Cl)c[nH]c2n1` [Compound 36], the dTm in test [1] is given as -1.33 K; in test [2] it was 4.24 K; in test [3] it was -0.14 K; in test [4], -0.10 K; in test [5], 6.68 K; in test [6], 10.15 K.
